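Test compounds were applied to cells in 96-well plates for 48 hours at 5 doses. GI50 marks 50% less growth.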 Activity calls are given as the source filed them. Cut-off read from the data, not from the text of the source: active = GI50 up to about 1.1 µM and inactive = higher.
Assays:
Test in all cases: growth of human tumour cells (NCI), 48 h
[1] = tested on: SF-295
[2] = tested on: COLO 205
[3] = tested on: UO-31
[4] = tested on: MOLT-4
[5] = tested on: HCC 2998
[6] = tested on: NCI-H460
[7] = tested on: TK-10
[8] = tested on: M14
[9] = tested on: NCI-H522
[10] = tested on: SW-620
[11] = tested on: HOP-62
[12] = tested on: LOX IMVI
[13] = tested on: SN12C
[14] = tested on: OVCAR-3
[15] = tested on: SK-OV-3
[16] = tested on: A549
[17] = tested on: K562

Measured: GI50

CCCCCCCCCc1cc(=O)c2c(O)cccc2o1
inactive: [1] 46.3 µM | [2] > 100 µM | [3] 37.1 µM | [4] 20.4 µM | [5] 65 µM | [6] 56.2 µM | [7] 54 µM | [8] 39.4 µM | [9] 34.9 µM | [10] 57.9 µM | [11] > 100 µM | [12] 22.8 µM | [13] 87.3 µM | [14] 75.9 µM | [15] > 100 µM | [16] 41.8 µM | [17] 29.2 µM

CC(=O)Nc1ccc(Cl)c(Cl)c1
inactive: [1] > 100 µM | [2] > 100 µM | [3] > 100 µM | [4] > 100 µM | [5] > 100 µM | [6] > 100 µM | [7] > 100 µM | [8] 40.4 µM | [9] > 100 µM | [10] > 100 µM | [11] > 100 µM | [12] > 100 µM | [13] > 100 µM | [14] > 100 µM | [15] > 100 µM | [16] > 100 µM | [17] > 100 µM

CC(C)N(C(=O)C12C3C4C1C1C2C3C41C(=O)O)C(C)C (centres undefined)
inactive: [1] > 100 µM | [2] > 100 µM | [3] > 100 µM | [4] > 100 µM | [5] > 100 µM | [6] > 100 µM | [7] > 100 µM | [8] > 100 µM | [9] > 100 µM | [10] > 100 µM | [11] > 100 µM | [12] > 100 µM | [13] > 100 µM | [14] > 100 µM | [15] > 100 µM | [16] > 100 µM | [17] > 100 µM

CCOC(=O)Nc1cc2nnc(-c3ccccc3)nc2c(N)n1
inactive: [1] 3.52 µM | [2] 2.73 µM | [3] 27.9 µM | [5] 15.8 µM | [6] 3.28 µM | [7] 37.5 µM | [8] 4.06 µM | [9] > 10 µM | [10] 14.6 µM | [11] 17.3 µM | [12] 14.7 µM | [13] 35.2 µM | [14] 6.43 µM | [15] 2.45 µM | [16] 4.81 µM | [17] 5.14 µM

O=C(O)/C(=C/c1ccccc1[N+](=O)[O-])c1ccccc1
inactive: [1] > 100 µM | [2] > 100 µM | [3] > 100 µM | [4] > 100 µM | [5] > 100 µM | [6] > 100 µM | [7] > 100 µM | [8] > 100 µM | [9] > 100 µM | [10] > 100 µM | [11] > 100 µM | [12] > 100 µM | [13] > 100 µM | [14] > 100 µM | [15] > 100 µM | [16] > 100 µM | [17] > 100 µM

— ChEMBL document CHEMBL1201862, “PubChem BioAssay data set” (2004)
